We go through 21 compounds from patent US20230416256A1, “SMALL MOLECULE INHIBITORS OF NF-kB INDUCING KINASE” (Janssen Pharmaceutica NV, priority 2020, published 2023).

Like-named read-outs stand apart in the source and are kept apart here. Bounds are passed on as bounds.

In assay [1] the test system is p-IKKα levels in L363 (NIK translocated multiple myeloma) cells. Nature of the assay: Effect of compounds on p-IKKα levels in L363 cells (AlphaLISA SureFire Ultra). The format is cell-based, human. To be noted: Homo sapiens, 10 μM MG132, 6 h, average of values obtained, read-out: Assay 2 IC50. In a few lines: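 L363 cells were BAFF-stimulated overnight (250 ng/ml) in DMEM/0.5% BSA, then exposed to an 11-point 1:3 compound series (0.3% DMSO) with BAFF and 10 μM MG132 for 6 h at 37 °C. p-IKKα (Ser176/180) was measured by AlphaLISA SureFire Ultra. IC50 was fitted from % inhibition normalized to stimulated and unstimulated controls.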
For orientation: In Alpha technology, singlet oxygen from a donor bead excites a nearby acceptor bead.

Assay [2] addresses recombinant human NF-kappaB-inducing kinase (NIK/MAP3K14) (Homo sapiens, UniProt Q99558). Briefly: Inhibition of auto-phosphorylation of recombinant human NIK/MAP3K14 activity (AlphaScreen). In kind it is biochemical. Particulars: GST-tagged NIK/MAP3K14 1 nM, 5 μM ATP, 2 h at 25° C.; average of values obtained. The gist of the method:
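GST-tagged NIK (1 nM) auto-phosphorylated for 2 h at 25 °C with 5 μM ATP in 50 mM Tris pH 7.5, 5 mM MgCl2, 0.7% DMSO. Phospho-Ser176/180 was detected by AlphaScreen using an anti-phospho-IKK antibody. IC50 came from sigmoidal fits of % inhibition versus high (full activity) and low (no ATP) controls.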

[3] abbreviates: L-363, 6 h, 250 ng/ml BAFF stimulated.
[4] abbreviates: L-363, 250 ng/ml BAFF stimulated.

Chain of recombinant human NF-kappaB-inducing kinase (NIK/MAP3K14) (Q99558 whole entry): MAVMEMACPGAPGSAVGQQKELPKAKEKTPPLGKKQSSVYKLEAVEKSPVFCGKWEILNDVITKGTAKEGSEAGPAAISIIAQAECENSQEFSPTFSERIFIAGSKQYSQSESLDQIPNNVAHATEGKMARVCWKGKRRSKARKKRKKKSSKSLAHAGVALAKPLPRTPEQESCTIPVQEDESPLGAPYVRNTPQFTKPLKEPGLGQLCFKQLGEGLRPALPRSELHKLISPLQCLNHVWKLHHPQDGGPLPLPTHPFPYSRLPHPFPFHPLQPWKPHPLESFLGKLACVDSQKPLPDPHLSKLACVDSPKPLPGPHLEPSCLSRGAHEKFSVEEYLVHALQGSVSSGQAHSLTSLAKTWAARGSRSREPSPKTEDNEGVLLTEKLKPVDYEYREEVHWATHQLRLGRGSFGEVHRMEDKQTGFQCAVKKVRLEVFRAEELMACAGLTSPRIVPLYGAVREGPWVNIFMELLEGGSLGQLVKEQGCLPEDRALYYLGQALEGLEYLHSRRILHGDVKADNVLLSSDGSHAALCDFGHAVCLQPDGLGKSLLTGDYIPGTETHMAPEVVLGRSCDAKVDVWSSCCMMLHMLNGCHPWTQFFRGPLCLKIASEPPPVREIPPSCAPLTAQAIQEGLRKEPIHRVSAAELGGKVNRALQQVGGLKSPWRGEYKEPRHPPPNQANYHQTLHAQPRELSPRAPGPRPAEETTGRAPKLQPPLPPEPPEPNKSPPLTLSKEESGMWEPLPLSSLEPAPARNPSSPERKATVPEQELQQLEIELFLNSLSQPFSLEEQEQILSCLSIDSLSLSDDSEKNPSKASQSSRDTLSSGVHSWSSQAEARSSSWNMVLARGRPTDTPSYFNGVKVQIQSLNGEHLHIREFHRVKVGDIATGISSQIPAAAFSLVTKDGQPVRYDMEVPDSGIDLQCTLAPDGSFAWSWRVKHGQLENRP

For `O[C@@]1(c2cccc(-c3csc(-c4c[nH]c5nnccc45)n3)c2)CCn2ccnc21` [Example 88, (R)-7-(3-(2-(7H-pyrrolo[2,3-c]pyridazin-5-yl)thiazol-4-yl)phenyl)-6,7-dihydro-5H-pyrrolo[1,2-a]imidazol-7-ol], the values for the IC50 in assay [1] (setting [3]) and in assay [2] were above 500 nM and at most 100 nM, respectively.

For the compound `CN1C(=O)[C@@](O)(c2cccc(-c3csc(-c4c[nH]c5ncccc45)n3)c2)c2ncccc21` [Example 91, (R)-3-(3-(2-(1H-Pyrrolo[2,3-b]pyridin-3-yl)thiazol-4-yl)phenyl)-3-hydroxy-1-methyl-1,3-dihydro-2H-pyrrolo[3,2-b]pyridin-2-one], the IC50 in assay [1] (setting [4]) and in assay [2] was above 500 nM in each case.

For the compound `CN1C(=O)[C@](O)(c2cccc(-c3csc(-c4c[nH]c5ncccc45)n3)c2)c2ncccc21` [Example 92, (S)-3-(3-(2-(1H-Pyrrolo[2,3-b]pyridin-3-yl)thiazol-4-yl)phenyl)-3-hydroxy-1-methyl-1,3-dihydro-2H-pyrrolo[3,2-b]pyridin-2-one], the IC50 (as a rule, the concentration at which inhibition is half-maximal) in assay [1] (setting [4]) is above 500 nM; in assay [2], at most 100 nM.

On to `CN1CC[C@@](O)(c2cccc(-c3coc(-c4c[nH]c5ncccc45)c3)c2)C1=O` [Example 93, (R)-3-(3-(5-(1H-Pyrrolo[2,3-b]pyridin-3-yl)furan-3-yl)phenyl)-3-hydroxy-1-methylpyrrolidin-2-one], for which the IC50 in assay [1] (setting [4]) was above 500 nM; in assay [2], at most 100 nM.

For the compound `CN1CC[C@@](O)(c2cccc(-c3csc(-c4c[nH]c5ncc(F)c(F)c45)n3)c2)C1=O` [Example 94, (R)-3-(3-(2-(4,5-Difluoro-1H-pyrrolo[2,3-b]pyridin-3-yl)thiazol-4-yl)phenyl)-3-hydroxy-1-methylpyrrolidin-2-one], the IC50 in assay [1] (setting [4]) was above 500 nM; in assay [2], at most 100 nM.

Turning to `CN1CC[C@@](O)(c2cccc(-c3csc(-c4c[nH]c5ncc(Cl)c(F)c45)n3)c2)C1=O` [Example 95, (R)-3-(3-(2-(5-Chloro-4-fluoro-1H-pyrrolo[2,3-b]pyridin-3-yl)thiazol-4-yl)phenyl)-3-hydroxy-1-methylpyrrolidin-2-one], the IC50 is above 500 nM in assay [1] (setting [4]) and at most 100 nM in assay [2].

As for `O[C@@]1(c2cccc(-c3csc(-c4c[nH]c5ncc(F)c(F)c45)n3)c2)CCn2ccnc21` [Example 96, (R)-7-(3-(2-(4,5-Difluoro-1H-pyrrolo[2,3-b]pyridin-3-yl)thiazol-4-yl)phenyl)-6,7-dihydro-5H-pyrrolo[1,2-a]imidazol-7-ol], the IC50 in assay [1] (setting [3]) was above 500 nM; in assay [2], at most 100 nM.

`O[C@@]1(c2cccc(-c3csc(-c4c[nH]c5ncc(Cl)c(F)c45)n3)c2)CCn2ccnc21` [Example 97, (R)-7-(3-(2-(5-Chloro-4-fluoro-1H-pyrrolo[2,3-b]pyridin-3-yl)thiazol-4-yl)phenyl)-6,7-dihydro-5H-pyrrolo[1,2-a]imidazol-7-ol]: the IC50 in assay [1] (setting [3]) is 100 to 500 nM; in assay [2] it was at most 100 nM.

Take `CN1CC[C@@](O)(c2cccc(-c3nc(-c4c[nH]c5ncccc45)sc3C#N)c2)C1=O` [Example 98, (R)-4-(3-(3-Hydroxy-1-methyl-2-oxopyrrolidin-3-yl)phenyl)-2-(1H-pyrrolo[2,3-b]pyridin-3-yl)thiazole-5-carbonitrile]: the half-inhibitory concentration (IC50) in assay [1] (setting [4]) and in assay [2] was above 500 nM in each case.

For the compound `CN1CC[C@@](O)(c2cccc(-c3csc(-c4n[nH]c5ncccc45)n3)c2)C1=O` [Example 100, (R)-3-(3-(2-(1H-Pyrazolo[3,4-b]pyridin-3-yl)thiazol-4-yl)phenyl)-3-hydroxy-1-methylpyrrolidin-2-one], the IC50 in assay [1] (setting [4]) and in assay [2] was above 500 nM throughout.

Regarding `C[C@@]1(O)C[C@@](O)(c2cccc(-c3csc(-c4c[nH]c5ncccc45)n3)c2)c2ncccc21` [Example 106, (5R,7R)-7-(3-(2-(1H-Pyrrolo[2,3-b]pyridin-3-yl)thiazol-4-yl)phenyl)-5-methyl-6,7-dihydro-5H-cyclopenta[b]pyridine-5,7-diol], the IC50 in assay [1] (setting [3]) and in assay [2] was above 500 nM each time.

On to `CN1CC[C@@](O)(c2cccc(-c3csc(-c4c(F)[nH]c5ncc(F)cc45)n3)c2)C1=O` [Example 110, (R)-3-(3-(2-(2,5-Difluoro-1H-pyrrolo[2,3-b]pyridin-3-yl)thiazol-4-yl)phenyl)-3-hydroxy-1-methylpyrrolidin-2-one], for which the half-maximal inhibitory concentration (IC50) in assay [1] (setting [4]) is above 500 nM; in assay [2] it was 100 to 500 nM.

Take `CN1CC[C@@](O)(c2cccc(-c3csc(-n4ccc5nc(N)ccc54)n3)c2)C1=O` [Example 112, (R)-3-(3-(2-(5-Amino-1H-pyrrolo[3,2-b]pyridin-1-yl)thiazol-4-yl)phenyl)-3-hydroxy-1-methylpyrrolidin-2-one]: the half-maximal inhibitory concentration (IC50) in assay [1] (setting [4]) and in assay [2] was above 500 nM in each case.

With `Cc1ccc2[nH]cc(-c3nc(-c4cccc([C@]5(O)CCN(C)C5=O)c4)cs3)c2n1` [Example 113, (R)-3-Hydroxy-1-methyl-3-(3-(2-(5-methyl-1H-pyrrolo[3,2-b]pyridin-3-yl)thiazol-4-yl)phenyl)pyrrolidin-2-one], the 50% inhibitory concentration (IC50) was above 500 nM in assay [1] (setting [4]) and 100 to 500 nM in assay [2].

As to `CN1CC[C@@](O)(c2cccc(-c3ccc(-c4c[nH]c5ncccc45)o3)c2)C1=O` [Example 114, (R)-3-(3-(5-(1H-Pyrrolo[2,3-b]pyridin-3-yl)furan-2-yl)phenyl)-3-hydroxy-1-methylpyrrolidin-2-one], the half-maximal inhibitory concentration (IC50) is 100 to 500 nM in assay [1] (setting [4]) and at most 100 nM in assay [2].

For the compound `CN1CC[C@@](O)(c2cccc(-c3cc(-c4c[nH]c5ncccc45)co3)c2)C1=O` [Example 115, (R)-3-(3-(4-(1H-Pyrrolo[2,3-b]pyridin-3-yl)furan-2-yl)phenyl)-3-hydroxy-1-methylpyrrolidin-2-one], the IC50 in assay [1] (setting [4]) and in assay [2] was above 500 nM throughout.

In the case of `CN1CC[C@@](O)(c2cccc(-c3coc(-c4c[nH]c5ncccc45)n3)c2)C1=O` [Example 116, (R)-3-(3-(2-(1H-Pyrrolo[2,3-b]pyridin-3-yl)oxazol-4-yl)phenyl)-3-hydroxy-1-methylpyrrolidin-2-one], the 50% inhibitory concentration (IC50) was above 500 nM in assay [1] (setting [4]) and at most 100 nM in assay [2].

In the case of `CN1CC[C@@](O)(c2cccc(-c3cc(-c4c[nH]c5ncccc45)[nH]n3)c2)C1=O` [Example 117, (R)-3-(3-(5-(1H-Pyrrolo[2,3-b]pyridin-3-yl)-1H-pyrazol-3-yl)phenyl)-3-hydroxy-1-methylpyrrolidin-2-one], the IC50 was above 500 nM in assay [1] (setting [4]) and 100 to 500 nM in assay [2].

`CN1CC[C@@](O)(c2cccc(-c3cc(-c4c[nH]c5ncccc45)nn3C)c2)C1=O` [Example 118, (R)-3-Hydroxy-1-methyl-3-(3-(1-methyl-3-(1H-pyrrolo[2,3-b]pyridin-3-yl)-1H-pyrazol-5-yl)phenyl)pyrrolidin-2-one]: the results for the concentration for half-maximal inhibition (IC50) in assay [1] (setting [4]) and in assay [2] were above 500 nM and 100 to 500 nM, respectively.

For `Cc1c(-c2c[nH]c3ncccc23)n[nH]c1-c1cccc([C@]2(O)CCN(C)C2=O)c1` [Example 119, (R)-3-Hydroxy-1-methyl-3-(3-(4-methyl-3-(1H-pyrrolo[2,3-b]pyridin-3-yl)-1H-pyrazol-5-yl)phenyl)pyrrolidin-2-one], the 50% inhibitory concentration (IC50) in assay [1] (setting [4]) and in assay [2] was above 500 nM in each case.

In the case of `CN1CC[C@@](O)(c2cccc(-c3cnc(-c4c[nH]c5ncccc45)n3C)c2)C1=O` [Example 120, (R)-3-hydroxy-1-methyl-3-(3-(1-methyl-2-(1H-pyrrolo[2,3-b]pyridin-3-yl)-1H-imidazol-5-yl)phenyl)pyrrolidin-2-one], the 50% inhibitory concentration (IC50) in assay [1] (setting [4]) and in assay [2] was above 500 nM in each case.
